{"source": "patent US9238022B2", "about": "“Xanthanodien for the treatment of cancer” (priority 2010, dated 2016)", "key": {"[1]": {"test_system": "leukocytes", "settings": "Dupuis & Brisson 1976; cited from earlier work"}, "[2]": {"test_system": "ovarian cancer cells JC, NIH:OVCAR-3, SKOV-3", "assay": "In vitro cytotoxicity test (Alamar blue, microscopy) on ovarian cancer cells", "format": "cell-based", "settings": "for cytotoxicity towards ovarian cancer cells (in words): 1, 5 and 10 μg/mL", "description": "(§1) Cells used in the assays were an ovarian cell line, JC (van Haaften-Day et al. 1983. Cancer Research 43: 3725-3731), OVCAR-3 and SKOV-3, The American Type Culture Collection (ATCC), a melanoma line (MM-An, Byers et al. 1991. Am J Path 139, No 2: 423-435) and normal human diploid fibroblasts primary cultures (Brookes et al. 2002 The EMBO Journal Vol. 21, No. 12: 2936-2945).\n(§2) In vitro cytotoxicity tests were performed using a non-fluorescent substrate, Alamar blue (BioSource, Invitrogen, UK) as described by Page et al. (Page B, Page M and Noel C. 1993. International Journal of Oncology 3: 473-476).\n(§3) Ovarian cancer cells (1×10^4 or 5×10^4) were seeded in 24-well plates (Costar, USA) and grown in RPMI-1640, supplemented with 6 mM L-glutamine, 10% fetal calf serum (FCS) (Gibco, Invitrogen, UK) and penicillin (100 units/mL) and streptomycin (100 μg/mL), while melanoma cells and normal fibroblasts were grown in Dulbecco's modified Eagle medium (DMEM), also supplemented with L-glutamine and FCS. The cultures were maintained in a humidified atmosphere of 5% CO2 at 37° C.\n(§4) The in exponential growth cultures (in triplicates) were treated with the compound, dissolved in dimethyl sulfoxide (DMSO) and added at final concentrations of 1, 5, and 10 μg/mL. In 2 mL medium/well 10% Alamar blue was added and 100 μl of the supernatant of the 24-well plates after 24, 48 and 72 hrs were pipetted into 96-well plates (Costar, USA). Cell viability was measured with a 96-well plate reader (Molecular Devices Ltd, UK).\n(§5) Ovarian cancer cells JC, NIH:OVCAR-3, Skov-3, fibroblasts as well as melanoma cancer cells MM-AN were used for cytotoxicity tests with EPD and EPA. The final concentrations of EPD and EPA added to the growth medium were 1, 5 and 10 μg/ml per well.\n(§6) Photographs were taken from the ovarian cancer cell line JC, the melanoma cell line MM-An and normal fibroblasts in 24-well plates using a Leica inverted microscope at a magnification of 100 times. Concentrations of EPD ranged 1-10 μg/mL and the experiments were terminated at 48 and 72 hrs (FIGS. 6-8).\nCell viability was measured by adding 10% Alamar Blue (BioSource, Invitrogen, UK) to ovarian cancer cell cultures (OVCAR-3, SKOV-3) to 1, 5 and 10 μg/ml of EPD and to the control cultures (as described above). After 24, 48 and 72 hours incubation, 100 μl of culture supernatant was taken and cell viability measured with a plate reader (Molecular Devices, Ltd, UK) according to the manufacturer's instructions. The results are depicted in FIGS. 3-5 and confirm that the phenomenon observed in the photographs of FIGS. 6-8 is cell death."}, "[3]": {"test_system": "normal human diploid fibroblasts", "assay": "In vitro cytotoxicity test on normal cells", "format": "cell-based", "description": "The cultures were maintained in a humidified atmosphere of 5% CO2 at 37° C.\nas §4, §5, §6"}, "[4]": {"test_system": "melanoma cells MM-AN", "assay": "In vitro cytotoxicity test on melanoma cells", "format": "cell-based", "description": "as §1, §2, §3, §4, §5, §6"}, "[5]": {"test_system": "NIH:OVCAR-3 cells", "assay": "Ovarian cancer animal model (i.p. OVCAR-3 ascites)", "format": "in vivo, Balb/c nu/nu mice", "description": "In order to assess the efficacy of EPD in the treatment of ovarian cancer, in vivo experiments were performed with Balb/c nu/nu mice (Charles River Laboratories, France). As a model system of advanced ovarian cancer, a total of 20 Balb/c nu/nu mice were inoculated intra-peritoneally (i.p.) with 1.0×10^7 cells NIH:OVCAR-3 cells (American Type Culture Collection (ATCC number: HTB-161™)/200 μl PBS. NIH:OVCAR-3 is an appropriate model system in which to study drug resistance in ovarian cancer. Upon inoculation into the abdominal cavity ascites were formed at first in only 5 mice. One mouse after having developed a large abdomen was sacrificed and the ascites cells were inoculated into the 15 mice which had not developed ascites. Another mouse was sacrificed to freeze down the cells. […] The 15 mice without ascites were devided into 3 groups of 5 mice. One group served as control, one group received the standard chemotherapy cisplatin and one group received the test drug EPD.\nDrugs were given 200 μl/mouse i.p. in order to assess their efficacy as anti-tumor drug. The weight of mice when drug-treated varied between 22 and 26 gram, all with a swollen abdomen. Reduction of the swollen abdomen of the mice (resulting from the killing of the OVCAR-3 cells) was then studied.\nEremophila-1(10)-11(13)-dien-12,8β-olide (EPD) was administered at 20 mg/kg body weight. EPD was isolated from Calomeria amaranthoides as described in Example 1 above. The drug was inoculated twice a week into the abdominal cavity of the mice."}, "[6]": {"test_system": "P388 Leukemia", "settings": "NCI screening data 1972; cited from earlier work"}, "[7]": {"settings": "20 mg/kg i.p. twice a week for 6 weeks"}}, "note": "“Also recorded” adds a separate entry of the source."}
{"compound": "C=C1C(=O)O[C@@H]2C[C@@]3(C)CCC[C@H](C)C3=C[C@H]12", "note": "[alantolactone]", "values": [{"measurement": "toxicity to leukocytes", "setting": "[1]", "result": "toxic"}]}
{"compound": "C=C1C(=O)O[C@@H]2CC3=CCC[C@H](C)[C@@]3(C)C[C@H]12", "note": "[EPD, eremophila-1(10)-11(13)-dien-12,8β-olide]", "values": [{"measurement": "effect on cancer cells at 1 μg/mL", "setting": "[2]; 1 μg/mL, in vitro", "result": "many cancer cells were floating in the wells; also recorded: great cell loss was already seen; also recorded: substantial killing of cancer cells"}, {"measurement": "cell death of cancer cells at 5 μg/mL", "setting": "[2]; 5 μg/mL, 48 hours", "result": "Cell death was observed in the majority of cancer cells; also recorded: killed"}, {"measurement": "cell death of cancer cells at 10 μg/mL", "setting": "[2]; 10 μg/mL, 48 hours", "result": "All cells were dead"}, {"measurement": "cytotoxicity towards ovarian cancer cells (in words)", "setting": "[2]", "result": "significant activity; also recorded: very clear cytotoxic effects"}, {"measurement": "selectivity, cancer cells over normal cells", "setting": "[2]; in vitro, compared with normal cells", "result": "selectively kills cancer cells over normal cells"}, {"measurement": "effect on normal cells at 5 μg/mL", "setting": "[3]; 5 μg/mL, 48 hours", "result": "not or little affected; also recorded: largely unaffected; also recorded: little affected"}, {"measurement": "effect on normal fibroblasts at 10 μg/mL", "setting": "[3]; 10 μg/mL, 48 hours", "result": "more evidence of cell death"}, {"measurement": "cell death of cancer cells at 5 μg/mL", "setting": "[4]; 5 μg/mL, 48 hours, MM-An", "result": "Cell death was observed in the majority of cancer cells"}, {"measurement": "cell death of cancer cells at 10 μg/mL", "setting": "[4]; 10 μg/mL, 48 hours, MM-An", "result": "All cells were dead"}, {"measurement": "general health, side effects", "setting": "[5]; [7]", "result": "looked very healthy; also recorded: did not show any signs of side effects"}, {"measurement": "swelling of the abdomen (ascites)", "setting": "[5]; [7]", "result": "reduced during treatment; also recorded: remission of cancer; also recorded: the ascites disappeared"}, {"measurement": "survival", "setting": "[5]; i.p. twice a week for 6 weeks", "result": "all the animals survived the study"}, {"measurement": "return of ascites after end of treatment", "setting": "[5]; three mice kept one month without further treatment after 6 weeks of treatment", "result": "In one mouse the ascites returned, two mice did not develop ascites again"}]}
{"compound": "CC(=O)O[C@@]12CO[C@@H]1C[C@H](O)[C@@]1(C)C(=O)[C@H](O)C3=C(C)[C@@H](OC(=O)[C@H](O)[C@@H](NC(=O)OC(C)(C)C)c4ccccc4)C[C@@](O)([C@@H](OC(=O)c4ccccc4)[C@H]21)C3(C)C", "note": "[docetaxol, reference compound]", "values": [{"measurement": "killing of normal cells, parallel comparison", "setting": "[3]; concentration of the drugs not given", "result": "completely kill"}]}
{"compound": "C=C1C(=O)O[C@H]2CC3=CCC[C@H](C)[C@@]3(C)C[C@@H]12", "note": "[napthofuranone, (3aβ,4aα,5α,9aβ)-3a,4,4a,5,6,7,9,9a-octahydro 4a,5-dimethyl-3-methylene naphtho[2,3-b]furan-2(3H)-2-one]", "values": [{"measurement": "in vivo anti-tumor activity", "setting": "[6]", "result": "no clear results"}]}
{"compound": "C=C(C(=O)O)[C@@H]1CCC2=CCC[C@H](C)[C@@]2(C)C1", "note": "[EPA, eremophila-1(10),11(13)-dien-12-oic acid]", "values": [{"measurement": "cytotoxicity towards ovarian cancer cells (in words)", "setting": "[2]", "result": "non-cytotoxic; also recorded: no cytotoxicity; also recorded: did not show cytotoxic effects"}, {"measurement": "cytotoxicity towards normal fibroblasts (in words)", "setting": "[3]; 1, 5 and 10 μg/mL", "result": "no cytotoxicity"}, {"measurement": "cytotoxicity towards melanoma cells (in words)", "setting": "[4]; 1, 5 and 10 μg/mL", "result": "no cytotoxicity"}]}
{"compound": "N.N.[Cl][Pt][Cl]", "note": "[cisplatin, reference compound]", "values": [{"measurement": "killing of cancer cells, parallel comparison", "setting": "[2]; comparison of crude extract, cisplatin and docetaxol, concentration of the drugs not given", "result": "all killed; also recorded: completely kill"}, {"measurement": "swelling of the abdomen (ascites)", "setting": "[5]; 5 mg/kg i.p. once a week for 4 weeks", "result": "reduced during treatment"}, {"measurement": "general health, side effects", "setting": "[5]; 5 mg/kg i.p. once a week, 4 weeks", "result": "got very sick; also recorded: had to be euthanized"}]}
